Source: patent US6737383B1, “Herbicidal oxadiazolidines” (priority 1999, dated 2004)

Assays:
bedstraw = test: Test B pre/postemergence bedstraw; format: in vivo, Galium aparine
Procedure, shortened: (§1)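 Herbicidal effect was estimated by eye on a ten-point control scale after plants spent twelve to sixteen days in a greenhouse following soil or foliar treatment. Foliar sprays targeted plants at one to four leaves; all doses were formulated in a non-phytotoxic solvent with surfactant.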

blackgrass = test: Test B pre/postemergence blackgrass; format: in vivo, Alopecurus myosuroides
Procedure, shortened: as §1

surinam grass = test: Test B pre/postemergence surinam grass; format: in vivo, Brachiaria decumbens
Procedure, shortened: as §1

cocklebur = test: Test B pre/postemergence cocklebur; format: in vivo, Xanthium strumarium; settings: for Cocklebur plant response rating: scale of 0 to 10 where 0 is no effect and 10 is complete control
Procedure, shortened: as §1

corn = test: Test B pre/postemergence corn; format: in vivo, Zea mays; settings: for Corn plant response rating: scale of 0 to 10 where 0 is no effect and 10 is complete control
Procedure, shortened: as §1

morningglory = test: Test B pre/postemergence morningglory; format: in vivo, Ipomoea hederacea; settings: for Morningglory plant response rating: scale of 0 to 10 where 0 is no effect and 10 is complete control
Procedure, shortened: as §1

pigweed = test: Test B pre/postemergence pigweed; format: in vivo, Amaranthus retroflexus; settings: for Redroot pigweed plant response rating: scale of 0 to 10 where 0 is no effect and 10 is complete control
Procedure, shortened: as §1

rape = test: Test B pre/postemergence rape; format: in vivo, Brassica napus; settings: for Rape plant response rating: scale of 0 to 10 where 0 is no effect and 10 is complete control
Procedure, shortened: as §1

velvetleaf = test: Test B pre/postemergence velvetleaf; format: in vivo, Abutilon theophrasti; settings: for Velvetleaf plant response rating: scale of 0 to 10 where 0 is no effect and 10 is complete control
Procedure, shortened: as §1

wheat = test: Test B pre/postemergence wheat; format: in vivo, Triticum aestivum; settings: for Wheat plant response rating: scale of 0 to 10 where 0 is no effect and 10 is complete control
Procedure, shortened: as §1

wild oat = test: Test B pre/postemergence wild oat; format: in vivo, Avena fatua; settings: for Wild oats plant response rating: scale of 0 to 10 where 0 is no effect and 10 is complete control
Procedure, shortened: as §1

purple nutsedge = test: Test B pre/postemergence purple nutsedge; format: in vivo, Cyperus rotundus; settings: for Nutsedge plant response rating: scale of 0 to 10 where 0 is no effect and 10 is complete control
Procedure, shortened: as §1

rice = test: Test B flood test rice; format: in vivo, Oryza sativa
Procedure, shortened: (§2)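 Plants were grown to the 2-leaf stage before treatment with test chemical, then held in a greenhouse for twelve to sixteen days. Injury was visually rated against untreated controls on a 0–10 scale, where 0 is no effect and 10 is complete control.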

smallflower flatsedge = test: Test B flood test smallflower flatsedge; format: in vivo, Cyperus difformis
Procedure, shortened: as §2

duck salad = test: Test B flood test duck salad; format: in vivo, Heteranthera limosa
Procedure, shortened: as §2

bamyardgrass = test: Test B flood test barnyardgrass; format: in vivo, Echinochloa crus-galli
Procedure, shortened: as §2

[1] = Postemergence, Rate 125 g/ha, scale 0 to 10, 0 is no effect, 10 is complete control
[2] = Preemergence, Rate 62 g/ha, scale 0 to 10 (0 no effect, 10 complete control)
[3] = Preemergence, Rate 250 g/ha, scale of 0 to 10 where 0 is no effect and 10 is complete control
[4] = Preemergence, Rate 500 g/ha, scale of 0 to 10 where 0 is no effect and 10 is complete control
[5] = Rate 62 g/ha, Postemergence, scale of 0 to 10 where 0 is no effect and 10 is complete control
[6] = Rate 250 g/ha, Postemergence, scale of 0 to 10 where 0 is no effect and 10 is complete control
[7] = Rate 500 g/ha, Postemergence, scale 0 to 10, 0 no effect, 10 complete control
[8] = Postemergence (flood test), Rate 125 g/ha, scale 0 to 10, 0 is no effect, 10 is complete control
[9] = Rate 62 g/ha, Postemergence (flood test species), scale of 0 to 10 where 0 is no effect and 10 is complete control
[10] = Rate 500 g/ha, listed under Postemergence (flood test species), scale 0 to 10, 0 no effect, 10 complete control

COCC(C)n1c(=O)on(C(=O)N(c2ccc(F)cc2F)C(C)C)c1=O (stereo not shown) [Compound 357]
1: Plant response rating, B. signalgrass (surinam grass; [2])
10: Plant response rating, Bedstraw (bedstraw; [2]) | Bedstraw plant response rating (0 to 10 scale) (bedstraw; Preemergence, Rate 125 g/ha) | Bedstraw plant response rating (bedstraw; [3]) | Bedstraw plant response rating (bedstraw; [4]) | Blackgrass plant response rating (blackgrass; [4]) | Redroot pigweed plant response rating (0 to 10 scale) (pigweed; Preemergence, Rate 125 g/ha) | Redroot pigweed plant response rating (pigweed; Preemergence, Rate 250 g/ha) | Redroot pigweed plant response rating (pigweed; Preemergence, Rate 500 g/ha) | Wild oats plant response rating (0 to 10 scale) (wild oat; Preemergence, Rate 125 g/ha) | Wild oats plant response rating (wild oat; Preemergence, Rate 250 g/ha) | Wild oats plant response rating (wild oat; Preemergence, Rate 500 g/ha)
9: Blackgrass plant response rating (blackgrass; [3]) | Corn plant response rating (corn; Preemergence, Rate 500 g/ha) | Wheat plant response rating (wheat; Preemergence, Rate 250 g/ha) | Wheat plant response rating (wheat; Preemergence, Rate 500 g/ha) | Plant response rating, Wild oats (wild oat; [2])
2: Plant response rating, Cocklebur (cocklebur; [7]) | Plant response rating, Morningglory (morningglory; [1]) | Morningglory plant response rating (0 to 10 scale) (morningglory; Preemergence, Rate 125 g/ha) | Morningglory plant response rating (morningglory; Preemergence, Rate 250 g/ha) | Morningglory plant response rating (morningglory; Rate 62 g/ha, Postemergence) | Rape plant response rating (0 to 10 scale) (rape; Preemergence, Rate 125 g/ha) | Plant response rating, Velvetleaf (velvetleaf; [1]) | Velvetleaf plant response rating (velvetleaf; Rate 62 g/ha, Postemergence) | Plant response rating, Nutsedge (purple nutsedge; [7]) | Plant response rating, Rice (rice; [10]) | Plant response rating, Ducksalad (duck salad; [10]) | Plant response rating, Barnyardgrass (bamyardgrass; [8])
8: Blackgrass plant response rating (0 to 10 scale) (blackgrass; Preemergence, Rate 125 g/ha) | Plant response rating, Morningglory (morningglory; [7]) | Plant response rating, Redroot pigweed (pigweed; [7]) | Rape plant response rating (rape; Preemergence, Rate 250 g/ha) | Rape plant response rating (rape; Preemergence, Rate 500 g/ha) | Plant response rating, S. Flatsedge (smallflower flatsedge; [10])
3: Blackgrass plant response rating (blackgrass; [5]) | B. signalgrass plant response rating (0 to 10 scale, 0 is no effect, 10 is complete control) (surinam grass; Preemergence, Rate 125 g/ha) | Plant response rating, Corn (corn; [7]) | Wild oats plant response rating (wild oat; Rate 62 g/ha, Postemergence)
0: Plant response rating, Bedstraw (bedstraw; [1]) | Bedstraw plant response rating (bedstraw; [5]) | Plant response rating, Bedstraw (bedstraw; [6]) | Plant response rating, B. signalgrass (surinam grass; [1]) | B. signalgrass plant response rating (surinam grass; [5]) | Plant response rating, Cocklebur (cocklebur; [1]) | Plant response rating, Cocklebur (cocklebur; [2]) | Cocklebur plant response rating (0 to 10 scale) (cocklebur; Preemergence, Rate 125 g/ha) | Cocklebur plant response rating (cocklebur; Preemergence, Rate 250 g/ha) | Cocklebur plant response rating (cocklebur; Preemergence, Rate 500 g/ha) | Cocklebur plant response rating (cocklebur; Rate 62 g/ha, Postemergence) | Plant response rating, Corn (corn; [1]) | Plant response rating, Corn (corn; [2]) | Corn plant response rating (0 to 10 scale) (corn; Preemergence, Rate 125 g/ha) | Corn plant response rating (corn; Rate 62 g/ha, Postemergence) | Plant response rating, Morningglory (morningglory; [2]) | Plant response rating, Redroot pigweed (pigweed; [1]) | Redroot pigweed plant response rating (pigweed; Rate 62 g/ha, Postemergence) | Plant response rating, Rape (rape; [1]) | Plant response rating, Rape (rape; [2]) | Rape plant response rating (rape; Rate 62 g/ha, Postemergence) | Plant response rating, Nutsedge (purple nutsedge; [1]) | Plant response rating, Nutsedge (purple nutsedge; [2]) | Nutsedge plant response rating (0 to 10 scale) (purple nutsedge; Preemergence, Rate 125 g/ha) | Nutsedge plant response rating (purple nutsedge; Preemergence, Rate 250 g/ha) | Nutsedge plant response rating (purple nutsedge; Rate 62 g/ha, Postemergence) | Plant response rating, Rice (rice; [8]) | Rice plant response rating (rice; [9]) | Plant response rating, S. Flatsedge (smallflower flatsedge; [8]) | S. Flatsedge plant response rating (smallflower flatsedge; [9]) | Plant response rating, Ducksalad (duck salad; [8]) | Ducksalad plant response rating (duck salad; [9]) | Barnyardgrass plant response rating (bamyardgrass; [9])
5: Plant response rating, Bedstraw (bedstraw; [7]) | Velvetleaf plant response rating (0 to 10 scale) (velvetleaf; Preemergence, Rate 125 g/ha) | Velvetleaf plant response rating (velvetleaf; Preemergence, Rate 250 g/ha) | Plant response rating, Wheat (wheat; [1])
6: Plant response rating, Blackgrass (blackgrass; [1]) | Plant response rating, Blackgrass (blackgrass; [6]) | B. signalgrass plant response rating (surinam grass; [3]) | Corn plant response rating (corn; Preemergence, Rate 250 g/ha) | Wheat plant response rating (0 to 10 scale) (wheat; Preemergence, Rate 125 g/ha) | Plant response rating, Wild oats (wild oat; [7]) | Nutsedge plant response rating (purple nutsedge; Preemergence, Rate 500 g/ha) | Plant response rating, Barnyardgrass (bamyardgrass; [10])
4: Plant response rating, B. signalgrass (surinam grass; [6]) | Plant response rating, Rape (rape; [7]) | Plant response rating, Velvetleaf (velvetleaf; [2]) | Plant response rating, Velvetleaf (velvetleaf; [7]) | Plant response rating, Wheat (wheat; [2]) | Wheat plant response rating (wheat; Rate 62 g/ha, Postemergence) | Plant response rating, Wild oats (wild oat; [1]) | Plant response rating, Barnyardgrass (bamyardgrass; Rate 250 g/ha, Postemergence (flood test species), scale of 0 to 10 where 0 is no effect and 10 is complete control)
7: Plant response rating, Blackgrass (blackgrass; [2]) | Plant response rating, Blackgrass (blackgrass; [7]) | B. signalgrass plant response rating (surinam grass; [4]) | Plant response rating, B. signalgrass (surinam grass; [7]) | Morningglory plant response rating (morningglory; Preemergence, Rate 500 g/ha) | Plant response rating, Redroot pigweed (pigweed; [2]) | Velvetleaf plant response rating (velvetleaf; Preemergence, Rate 500 g/ha) | Plant response rating, Wheat (wheat; [7])
